Here are results for 22 molecules from ChEMBL document CHEMBL4476883, “Hydroxy formamide derivatives and their use” (2017).

In test [1] the target is T1, Tolloid-like protein 2 (Homo sapiens, UniProt Q9Y6L7).
T1 sequence (Q9Y6L7 whole entry): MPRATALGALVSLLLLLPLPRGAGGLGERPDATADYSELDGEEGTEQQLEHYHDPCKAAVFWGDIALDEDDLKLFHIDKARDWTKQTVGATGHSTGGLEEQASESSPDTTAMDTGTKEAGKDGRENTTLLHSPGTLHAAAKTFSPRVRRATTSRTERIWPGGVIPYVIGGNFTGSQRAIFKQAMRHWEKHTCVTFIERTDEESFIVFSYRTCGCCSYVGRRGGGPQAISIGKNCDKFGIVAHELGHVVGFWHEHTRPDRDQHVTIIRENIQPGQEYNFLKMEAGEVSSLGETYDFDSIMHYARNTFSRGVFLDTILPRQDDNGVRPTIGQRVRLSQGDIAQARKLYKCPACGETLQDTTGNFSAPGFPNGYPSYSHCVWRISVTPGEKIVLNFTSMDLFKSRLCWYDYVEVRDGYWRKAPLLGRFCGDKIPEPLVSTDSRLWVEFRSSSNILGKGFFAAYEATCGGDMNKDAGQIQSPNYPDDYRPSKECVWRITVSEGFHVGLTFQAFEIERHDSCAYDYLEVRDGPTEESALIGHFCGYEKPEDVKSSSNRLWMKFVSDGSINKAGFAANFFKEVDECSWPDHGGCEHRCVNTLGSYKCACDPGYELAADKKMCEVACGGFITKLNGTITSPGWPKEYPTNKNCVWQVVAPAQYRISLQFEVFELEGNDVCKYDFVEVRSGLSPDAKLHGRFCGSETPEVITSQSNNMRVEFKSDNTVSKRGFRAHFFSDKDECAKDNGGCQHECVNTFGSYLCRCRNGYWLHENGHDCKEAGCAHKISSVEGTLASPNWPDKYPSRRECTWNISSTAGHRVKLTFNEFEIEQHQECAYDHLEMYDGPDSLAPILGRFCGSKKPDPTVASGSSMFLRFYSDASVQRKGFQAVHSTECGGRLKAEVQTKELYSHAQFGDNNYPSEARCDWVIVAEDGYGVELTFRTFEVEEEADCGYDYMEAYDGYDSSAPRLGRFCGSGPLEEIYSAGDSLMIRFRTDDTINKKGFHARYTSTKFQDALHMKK
In words: Inhibition of C-terminal Avi-6x-His epitope tagged and N-terminal human RAGE signal sequence tagged recombinant human TLL2 (26 to 1015 amino acids) expressed in CHOE1A cells incubated for 60 mins with promyostatin peptide substrate by FRET based assay. Type of test: cell-based.

In test [2] the target is T2, Bone morphogenetic protein 1 (Homo sapiens, UniProt P13497).
T2 sequence (P13497 whole entry): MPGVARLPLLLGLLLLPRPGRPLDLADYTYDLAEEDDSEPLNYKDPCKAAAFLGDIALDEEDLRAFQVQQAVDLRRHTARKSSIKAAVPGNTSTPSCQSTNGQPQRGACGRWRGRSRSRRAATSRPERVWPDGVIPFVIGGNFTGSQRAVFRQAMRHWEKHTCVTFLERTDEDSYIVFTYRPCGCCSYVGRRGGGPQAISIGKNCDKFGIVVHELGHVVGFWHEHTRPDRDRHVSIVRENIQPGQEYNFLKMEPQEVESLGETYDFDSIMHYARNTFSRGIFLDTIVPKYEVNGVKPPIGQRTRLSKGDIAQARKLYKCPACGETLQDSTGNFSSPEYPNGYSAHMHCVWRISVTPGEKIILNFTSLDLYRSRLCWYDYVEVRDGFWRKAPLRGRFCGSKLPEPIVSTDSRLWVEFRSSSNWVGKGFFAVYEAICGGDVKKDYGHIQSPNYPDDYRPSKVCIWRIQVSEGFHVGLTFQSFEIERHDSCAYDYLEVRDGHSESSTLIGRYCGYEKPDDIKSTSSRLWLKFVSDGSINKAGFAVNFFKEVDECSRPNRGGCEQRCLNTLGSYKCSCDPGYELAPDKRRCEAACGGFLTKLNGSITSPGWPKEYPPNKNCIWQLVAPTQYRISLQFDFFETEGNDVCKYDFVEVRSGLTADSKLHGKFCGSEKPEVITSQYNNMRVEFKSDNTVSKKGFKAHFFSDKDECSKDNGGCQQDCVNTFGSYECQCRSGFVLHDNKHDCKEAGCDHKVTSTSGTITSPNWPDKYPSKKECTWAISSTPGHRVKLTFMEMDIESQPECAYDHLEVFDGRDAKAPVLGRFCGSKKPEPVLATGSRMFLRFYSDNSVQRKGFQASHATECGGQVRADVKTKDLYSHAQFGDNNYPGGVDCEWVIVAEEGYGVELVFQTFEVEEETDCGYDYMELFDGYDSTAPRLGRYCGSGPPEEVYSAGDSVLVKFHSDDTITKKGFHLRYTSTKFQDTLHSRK
Kind of test: Inhibition of C-terminal FLAG-6x-His epitope tagged and N-terminal human RAGE signal sequence tagged human BMP1 (23 to 721 amino acids) expressed in CHO-E1A cells pre-incubated for 10 mins before promyostatin peptide substrate addition and measured after 60 mins using 0.5 nM BMP1 by FRET based assay. It is filed as cell-based.

The target of test [3] is Tolloid-like protein 1 (Homo sapiens, UniProt O43897, I156V/N221S/V284A). In words: Inhibition of recombinant human TLL1 I156V/N221S/V284A mutant expressed in CHOE1A cells pre-incubated for 10 mins before promyostatin peptide substrate addition and measured after 60 mins by FRET based assay. It is filed as cell-based.
Tolloid-like protein 1, sequence (O43897 148-1013 I156V/N221S/V284A limits assumed): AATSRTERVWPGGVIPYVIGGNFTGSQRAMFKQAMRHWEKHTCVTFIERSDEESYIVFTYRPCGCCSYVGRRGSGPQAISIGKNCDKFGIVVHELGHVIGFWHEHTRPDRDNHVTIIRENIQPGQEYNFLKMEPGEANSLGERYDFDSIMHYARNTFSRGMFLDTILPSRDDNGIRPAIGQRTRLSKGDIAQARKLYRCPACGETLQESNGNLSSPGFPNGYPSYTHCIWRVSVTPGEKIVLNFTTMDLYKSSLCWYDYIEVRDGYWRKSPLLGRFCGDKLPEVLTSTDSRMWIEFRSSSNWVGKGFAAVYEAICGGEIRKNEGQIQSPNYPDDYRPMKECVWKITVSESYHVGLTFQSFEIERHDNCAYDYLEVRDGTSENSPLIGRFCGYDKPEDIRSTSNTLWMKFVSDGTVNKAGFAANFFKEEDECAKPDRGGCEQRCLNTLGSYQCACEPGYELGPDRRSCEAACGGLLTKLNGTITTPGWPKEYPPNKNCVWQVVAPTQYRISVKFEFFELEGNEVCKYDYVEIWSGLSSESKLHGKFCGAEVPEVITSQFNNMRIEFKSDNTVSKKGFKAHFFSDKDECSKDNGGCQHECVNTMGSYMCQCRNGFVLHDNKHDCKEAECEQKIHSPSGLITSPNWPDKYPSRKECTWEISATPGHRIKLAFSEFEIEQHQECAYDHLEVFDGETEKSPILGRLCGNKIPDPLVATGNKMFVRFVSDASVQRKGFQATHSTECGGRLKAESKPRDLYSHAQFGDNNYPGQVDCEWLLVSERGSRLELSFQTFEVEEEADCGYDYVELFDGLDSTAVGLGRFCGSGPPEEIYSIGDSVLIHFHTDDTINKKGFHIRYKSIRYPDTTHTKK
Test [4] in a line: Reduction in PICP levels in human cardiac fibroblasts incubated for 24 to 48 hrs by ELISA. Type of test: functional. (In general: An ELISA detects its analyte on a solid surface through an enzyme-linked reagent.)
In test [5] the target is T2, Bone morphogenetic protein 1. In words: Inhibition of C-terminal FLAG-6x-His epitope tagged and N-terminal human RAGE signal sequence tagged human BMP1 (23 to 721 amino acids) expressed in CHO-E1A cells pre-incubated for 10 mins before promyostatin peptide substrate addition and measured after 30 mins using 50 nM BMP1 by FRET based assay. Type of test: cell-based.

SMILES strings stand for the structures. A value given as a limit tells only on which side of the number the result lay.

As a reminder, the IC50 is the midpoint of a concentration-inhibition curve. As for `COc1cc(OC)cc(-c2cccc(C(=O)NCNC(=O)[C@H](CC3CCCC3)CN(O)C=O)c2)c1`, the IC50 was under 631 nM in test [1]; under 126 nM in test [2]; under 398 nM in test [3]; under 20 µM in test [4]; under 251 nM in test [5].
Turning to `CCCCC[C@@H](C(=O)NCNC(=O)c1cccc(-c2ccc(C(=O)NCP(=O)(O)O)c(O)c2)n1)[C@@H](CC)N(O)C=O`, the IC50 in test [1] was under 631 nM; in test [2] it was under 126 nM; in test [3] it was under 398 nM; in test [4], under 20 µM; in test [5], under 251 nM.
In the same order, the values of `CCCCC[C@H](CN(O)C=O)C(=O)NCNC(=O)c1cccc(-c2nnn[nH]2)c1` are under 631 nM, under 126 nM, under 398 nM, under 20 µM and under 251 nM.
For `CCCCC[C@H](CN(O)C=O)C(=O)NCNC(=O)c1cccc(-c2cc(OC)ccc2F)c1F` the same measures were under 631 nM, under 126 nM, under 398 nM, under 20 µM and under 251 nM.
For `CCCCC[C@H](CN(O)C=O)C(=O)NCNC(=O)c1cccc(-c2ncc(C)o2)c1`, the IC50 is under 631 nM in test [1]; under 126 nM in test [2]; under 398 nM in test [3]; under 20 µM in test [4]; under 251 nM in test [5].
As to `CCCCC[C@H](CN(O)C=O)C(=O)NCNC(=O)c1cccc(-c2ccc(F)cc2F)n1`, the IC50 was under 631 nM in test [1]; under 126 nM in test [2]; under 398 nM in test [3]; under 20 µM in test [4]; under 251 nM in test [5].
For `CCCCC[C@H](CN(O)C=O)C(=O)NCNC(=O)c1cccc(-c2ccc(F)cc2)c1` the same measures were under 631 nM, under 126 nM, under 398 nM, under 20 µM and under 251 nM.
Turning to `CCCCC[C@H](CN(O)C=O)C(=O)NCNC(=O)c1ccnc(-c2ccccc2)n1`, the IC50 in test [1] is under 631 nM; in test [2], under 126 nM; in test [3], under 398 nM; in test [4], under 20 µM; in test [5], under 251 nM.
As for `CCCCC[C@H](CN(O)C=O)C(=O)NCNC(=O)c1cccc(-c2cc(OC)nnc2OC)c1`, the IC50 is under 631 nM in test [1]; under 126 nM in test [2]; under 398 nM in test [3]; under 20 µM in test [4]; under 251 nM in test [5].
With `CCCCC[C@H](CN(O)C=O)C(=O)NCNC(=O)c1cccc(-c2cc(OCC)cc(C(=O)O)c2)n1`, the IC50 was under 631 nM in test [1]; under 126 nM in test [2]; under 398 nM in test [3]; under 20 µM in test [4]; under 251 nM in test [5].
Regarding `CCCCC[C@H](CN(O)C=O)C(=O)NCNC(=O)c1ccc(F)c(-c2ccccc2)n1`, the IC50 is under 631 nM in test [1]; under 126 nM in test [2]; under 398 nM in test [3]; under 20 µM in test [4]; under 251 nM in test [5].
In the same order, the values of `O=CN(O)C[C@@H](CC1CCCC1)C(=O)NCNC(=O)c1cccc(-c2ccccc2)c1` are under 631 nM, under 126 nM, under 398 nM, under 20 µM and under 251 nM.
In the same order, the values of `CCc1cccc(-c2cccc(C(=O)NCNC(=O)[C@H](CC3CCCC3)CN(O)C=O)c2)c1` are under 631 nM, under 126 nM, under 398 nM, under 20 µM and under 251 nM.
Take `COc1cncc(-c2cccc(C(=O)NCNC(=O)[C@H](CC3CCCC3)CN(O)C=O)c2)c1`: the IC50 was under 631 nM in test [1]; under 126 nM in test [2]; under 398 nM in test [3]; under 20 µM in test [4]; under 251 nM in test [5].
As to `CCCCC[C@H](CN(O)C=O)C(=O)NCNC(=O)c1cccc(-c2cccc(OC)c2F)c1`, the IC50 in test [1] was under 631 nM; in test [2], under 126 nM; in test [3] it was under 398 nM; in test [4] it was under 20 µM; in test [5], under 251 nM.
Regarding `CCCCC[C@@H](C(=O)NCNC(=O)c1cccc(-c2ccc(P(=O)(O)O)c(OCC)c2)c1)[C@@H](CC)N(O)C=O`, the IC50 is under 631 nM in test [1]; under 126 nM in test [2]; under 398 nM in test [3]; under 20 µM in test [4]; under 251 nM in test [5].
As for `CCCCC[C@H](CN(O)C=O)C(=O)NCNC(=O)c1cccc(-c2ccc(OC)cc2)c1`, the IC50 in test [1] was under 631 nM; in test [2] it was under 126 nM; in test [3], under 398 nM; in test [4], under 20 µM; in test [5], under 251 nM.
In the same order, the values of `CCCCC[C@H](CN(O)C=O)C(=O)NCNC(=O)c1cccc(-c2ccc(N(C)C)cc2)c1` are under 631 nM, under 126 nM, under 398 nM, under 20 µM and under 251 nM.
Take `CCCCC[C@H](CN(O)C=O)C(=O)NCNC(=O)c1cccc(-c2ccc(F)cc2)n1`: the IC50 in test [1] was under 631 nM; in test [2] it was under 126 nM; in test [3], under 398 nM; in test [4], under 20 µM; in test [5], under 251 nM.
For `CCCCC[C@H](CN(O)C=O)C(=O)NCNC(=O)c1cccc(-c2cccc(S(N)(=O)=O)c2)c1` the same measures were under 631 nM, under 126 nM, under 398 nM, under 20 µM and under 251 nM.
In the same order, the values of `CCCCC[C@@H](C(=O)NCNC(=O)c1cccc(-c2cc(OCC)cc(C(=O)N[C@@H](CC(=O)O)C(=O)O)c2)c1)[C@@H](CC)N(O)C=O` are under 631 nM, under 126 nM, under 398 nM, under 20 µM and under 251 nM.
For the molecule `CCCCC[C@@H](C(=O)NCNC(=O)c1cccc(-c2ccc(CC(=O)O)cc2)n1)[C@@H](CC)N(O)C=O`, the IC50 is under 631 nM in test [1]; under 126 nM in test [2]; under 398 nM in test [3]; under 20 µM in test [4]; under 251 nM in test [5].
